pEC50, pIC50: −log10 of the molar value. Like-named read-outs stand apart in the source and are kept apart here.
Key:
[1] = test system: ERE-luciferase (ER-α-positive BG1Luc4E2 cells); experiment: ERE-luciferase reporter assay in stably transfected BG1Luc4E2 ovarian cancer cells; format: cell-based, human; conditions: for EC50 / pEC50: determined using the chemical's own maximum effect set at 100%, luciferase 18 hr after addition; for pEC50: read-out: EC50; for Fold-induction at EC50: normalized to vehicle control (DMSO = 1)
Excerpt: MDA-MB-231 breast cancer cells ([Cailleau et al. 1978]) obtained from ATCC (American Type Culture Collection; Manassas, VA) and BG1Luc4E2 ovarian cancer cells, a gift from M. Denison (University of California, Davis, CA), were used in estrogen bioassays. BG1LucE2 cells are BG-1 ovarian cancer cells ([Geisinger et al. 1989]) stably transfected with an estrogen-responsive plasmid ([Rogers and Denison 2000]). Most cell culture media and supplements were purchased from Gibco/Invitrogen (Carlsbad, CA), except bovine growth serum (BGS; Hyclone, Logan, UT) and geneticin (G418; Sigma). Most charcoal-stripping reagents and endotoxin-free water were purchased from Sigma-Aldrich (St. Louis, MO) except Dulbecco’s phosphate-buffered saline (DPBS; Mediatech Inc., Herndon, VA). MDA-MB-231 cells were maintained in growth medium (GM): minimum essential media (MEM) supplemented with L-glutamine (2 mM), nonessential amino acids (0.1 mM), HEPES buffer (10 mM), […] insulin, and 5% vol/vol BGS]. BG1Luc4E2 cells were maintained in BG1-GM: alpha-MEM supplemented with HEPES buffer (10 mM), geneticin (0.4 g/L) and 10% vol/vol BGS. Basal medium (BM) for MDA-MB-231 cells consisted of a formulation similar to GM, except that phenol red–free MEM and 3% charcoal-stripped BGS were used. BM for BG1Luc4E2 cells (BG1-BM) consisted of phenol red–free Dulbecco’s modified Eagle media: Nutrient Mixture F12 (DMEM:F12; Gibco/Invitrogen) supplemented with HEPES buffer (10 mM) and 10% vol/vol charcoal-stripped BGS. BGS was stripped of estrogenic activity by methods described previously ([Biswas and Vonderhaar 1987]; [Lippman et al. 1976]).
(§1) We used two ERE-luciferase reporter gene systems: one transiently transfected and the other an established stably transfected cell line. For the transient system, ER-negative MDA-MB-231 breast cancer cells were plated in BM. Two days later cells were transfected using Tfx-20 (Promega, Madison, WI) with expression vectors for ER-α(HEG0; from P. Chambon, Université Louis Pasteur, Illkrich, France), the estrogen-responsive firefly luciferase reporter construct ERE2-pS2-luc ([Long et al. 2001]), and the control Renilla luciferase reporter construct pRL-TK (Promega). Cells were treated with test chemicals 1 hr after transfection, and assayed for luciferase activity after 18 hr. Results are expressed as the ratio of firefly luciferase to Renilla luciferase. For the stable reporter system, ER-positive BG1Luc4E2 ovarian cancer cells ([Rogers and Denison 2000]) were incubated in BG1-BM for 5 days before treatment; cells were then assayed for luciferase activity 18 hr after addition of the test compound.
All statistics were performed using GraphPad Prism, version 3.0a, for Macintosh (GraphPad Software, San Diego CA). For each analysis, we determined whether groups had unequal variances by Bartlett’s test. Group averages with equal variances were compared to each other either by one-way analysis of variance (ANOVA) with Tukey post-test or by unpaired t-test as appropriate. Group averages with unequal variances were compared to each other by t-test with Welch’s correction. […] All values are expressed as mean ± SD or SE as indicated. We considered groups statistically different if p < 0.05 by ANOVA with Tukey posttest or t-test (two-tailed). Dose–response studies were also subjected to regression analysis using a sigmoidal curve fitting model: […]

recombinant ER-α = target: T1, recombinant ER-α (Homo sapiens, UniProt P03372); experiment: Recombinant ER-α binding assay (3H-E2 displacement)
T1 construct: purchased Panvera/Invitrogen, Madison, WI
T1 sequence (P03372 1-595): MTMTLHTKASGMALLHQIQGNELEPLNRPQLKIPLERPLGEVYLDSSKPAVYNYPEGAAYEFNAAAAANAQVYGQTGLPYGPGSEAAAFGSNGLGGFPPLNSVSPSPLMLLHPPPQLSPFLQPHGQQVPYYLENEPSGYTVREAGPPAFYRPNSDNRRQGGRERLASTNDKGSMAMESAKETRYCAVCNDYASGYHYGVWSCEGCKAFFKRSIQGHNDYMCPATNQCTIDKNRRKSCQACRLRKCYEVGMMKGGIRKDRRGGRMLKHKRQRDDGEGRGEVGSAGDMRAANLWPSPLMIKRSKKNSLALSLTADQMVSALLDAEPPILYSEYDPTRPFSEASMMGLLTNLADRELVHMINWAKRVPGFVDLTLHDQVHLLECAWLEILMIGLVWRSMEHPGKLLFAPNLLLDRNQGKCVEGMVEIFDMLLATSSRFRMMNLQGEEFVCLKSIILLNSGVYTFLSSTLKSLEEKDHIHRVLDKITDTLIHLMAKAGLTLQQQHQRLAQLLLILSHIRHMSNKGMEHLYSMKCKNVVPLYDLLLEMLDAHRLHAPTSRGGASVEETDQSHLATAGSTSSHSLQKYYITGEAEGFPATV

[2] = test system: ERE-luciferase (BG1Luc4E2 cells); experiment: ERE-luciferase induction in BG1Luc4E2 cells after cotreatment with 10^−11 M E2; format: cell-based, human; conditions: for Effect on E2-induced ERE-luciferase activity (cotreatment): compared with the maximal effect of E2 alone
Experimental: as §1
See “Material and Methods” for details. […] Error bars indicate SE.

BG1Luc4E2 cells = conditions: 5–50 μM, alone or in combination with E2
[3] = test system: ERE-luciferase (MDA-MB-231 cells transfected with ER-α or BG1Luc4E2 cells); experiment: ERE-luciferase induction by microsomal metabolites (rat liver microsome incubation products); conditions: female rat liver microsomes, complete NADPH generating system
Experimental: as §1

[4] = 1 nM 3H-E2, 0.6 nM recombinant ER-α, 4°C overnight

| Structure (SMILES) | EC50 [1] | pIC50 (recombinant ER-α) | Relative affinity (E2 IC50 ÷ test chemical IC50 × 100) (recombinant ER-α) | Effect on E2-induced ERE-luciferase activity (cotreatment) [2] | pEC50 ([1]; Homo sapiens) | further results |
| --- | --- | --- | --- | --- | --- | --- |
| Oc1cc(Br)c(Br)cc1Br [2,4,5-TBP, 2,4,5-tribromophenol] | No effect |  |  |  |  | IC50 (concentration yielding 50% displacement of 3H-E2 from receptor) (recombinant ER-α; [4]): No effect |
| Oc1ccc(Br)cc1Br [2,4-DBP, 2,4-dibromophenol] | No effect |  |  |  |  | IC50 (concentration yielding 50% displacement of 3H-E2 from receptor) (recombinant ER-α; [4]): No effect |
| Oc1cc(Br)ccc1Oc1ccc(Br)cc1Br [2′-OH-BDE-28, 2′-OH - 2,4, 4′ - tribromodiphenyl] |  | 4.22 | 0.001% | able to antagonize the effect of E2 |  | Concentration at which antagonism of E2 was observed [2]: 50 µM; Toxicity (protein content of culture wells at harvest) (BG1Luc4E2 cells): no toxicity |
| Oc1c(Br)ccc(Oc2ccc(Br)cc2Br)c1Br [3-OH-BDE-47, 3-OH-2, 2′, 4, 4′-tetrabromodiphenyl] |  |  | 0.001% | able to potentiate the ERE-luciferase induction of E2 |  | pIC50 (recombinant ER-α; [4]): 4.28 |
| Oc1ccc(Oc2ccc(Br)cc2Br)c(Br)c1Br [4-OH-BDE-42, 4-HO-2, 2′,3, 4′-tetra-bromodiphenyl] |  | 4.85 | 0.005% | appeared to induce ERE-luciferase above the E2 maximum, but the effect was not statistically significant |  |  |
| Oc1ccc(Oc2ccc(Br)cc2Br)c(Br)c1 [4′-OH-BDE-17, 4-OH-2, 2′, 4-tribromodiphenyl] |  | 5.68 | 0.03% | beyond the maximal effect of E2 alone | 5.33 | Relative effect (test chemical-to-E2 ratio of luciferase induction at EC50) [1]: 1.30 ratio; Relative estrogen potency (ratio of the E2 EC50 to EEP) [1]: 3.4 × 10^−7 ratio; Relative estrogenic potency compared with DE-71 [1]: approximately 10 fold; Emax ([1]; Homo sapiens, read-out: Estimated maximal effect higher than E2): 30%; Fold-induction at EC50 [1]: 4.3 |
| Oc1cc(Br)c(Oc2ccc(Br)cc2Br)cc1Br [4′-OH-BDE-49, 4′-OH-2, 2′,4, 5′-tetrabromodiphenyl] |  | 5.64 | 0.03% | beyond the maximal effect of E2 alone | 4.89 | Relative effect (test chemical-to-E2 ratio of luciferase induction at EC50) [1]: 0.36 ratio; Fold-induction at EC50 [1]: 1.2 |
| Oc1cc(Br)cc(Br)c1Oc1ccc(Br)cc1Br [6-OH-BDE-47, 6-OH-2, 2′,4, 4′-tetra-bromodiphenyl] | No effect | 4.96 | 0.001% | able to antagonize the effect of E2 |  | Concentration at which antagonism of E2 was observed [2]: 5 µM; Toxicity (protein content of culture wells at harvest) (BG1Luc4E2 cells): no toxicity |
| C[C@]12CC[C@@H]3c4ccc(O)cc4CC[C@H]3[C@@H]1CC[C@@H]2O [E2, 1, 3, 5(10)-estra-triene-3, 17β-diol, reference compound] |  |  |  |  | 11.92 | Test concentrations inducing ERE-luciferase [1]: above 10^−13 M; Decrease of activity by microsomal incubation [3]: 78% |
